Experimental findings from patent US10870629B2, “18F-labelled compound for prostate cancer diagnosis, and use thereof” (FUTURECHEM CO., LTD., priority 2017, dated 2020) are described below.

In general, IC50 refers to the concentration at which inhibition is half-maximal.

Data set [1] concerns the target T1, PSMA protein (Homo sapiens, UniProt Q04609).
T1 construct: host or cells: 22RV1 human prostate cancer cells
The data set is described as follows: Measurement of binding capacity: competition with [125I]15 on 22RV1 cells. The following applies: for IC50: [125I]15 0.1 nM, 37° C., 2 hours, read-out: IC50 (Mean ± SD). The procedure:
RPMI1640 supplemented with 1% BSA (bovine serum albumin) was used as a buffer solution.
[^125I]15 (0.1 nM) was added to a vessel containing 22RV1 cells (5×10^4), to which [^18F]1-1 to [^18F]1-9 compounds were loaded at 9 concentrations ([…]), followed by stirring at 37° C. for 2 hours. Upon completion of the stirring, the vessel was washed with 2 mL of PBS solution three times, and then the remaining radioactivity and 50% inhibition concentration (nonlinear regression method) were measured using a gamma counter (2480 WIZARD2 Gamma Counter PerkinElmer Co., MA) and GraphPad Prism (GraphPad Software, Inc., CA).

In data set [2] the test system is PC-3 PIP. Briefly: Measurement of cellular internalization. Format: cell-based, human. An excerpt:
Then, the membrane protein and the cytoplasmic protein were separated by using Mem-PER Plus Membrane Protein Extraction Kit and NE-PER Nuclear and Cytoplasmic Extraction Kit (ThermoFisher Scientific). The internalization rate (%) was confirmed by obtaining the radioactivity ratio in the cytoplasmic protein to the total radioactivity.

Data set [3] relates to PSMA+ PC-3 PIP tumors. The data set is described as follows: MicroPET/CT in mice transplanted with prostate cancer cell lines. Format: in vivo, nude mouse. The settings on record: for tumor binding (MicroPET/CT, FIG. 3): nude mouse with PC-3 PIP and PC-3 flu tumors; for excretion (MicroPET/CT, FIG. 3): nude mouse, intravenous, 60 minutes imaging.
Data set [4] has as its system PSMA+ PC-3 PIP tumor. The data set is described as follows: Biodistribution test with prostate cancer model mouse.
The mark [5] stands for this setting: 0.5 h after tail vein injection.

T1 sequence (Q04609 whole entry): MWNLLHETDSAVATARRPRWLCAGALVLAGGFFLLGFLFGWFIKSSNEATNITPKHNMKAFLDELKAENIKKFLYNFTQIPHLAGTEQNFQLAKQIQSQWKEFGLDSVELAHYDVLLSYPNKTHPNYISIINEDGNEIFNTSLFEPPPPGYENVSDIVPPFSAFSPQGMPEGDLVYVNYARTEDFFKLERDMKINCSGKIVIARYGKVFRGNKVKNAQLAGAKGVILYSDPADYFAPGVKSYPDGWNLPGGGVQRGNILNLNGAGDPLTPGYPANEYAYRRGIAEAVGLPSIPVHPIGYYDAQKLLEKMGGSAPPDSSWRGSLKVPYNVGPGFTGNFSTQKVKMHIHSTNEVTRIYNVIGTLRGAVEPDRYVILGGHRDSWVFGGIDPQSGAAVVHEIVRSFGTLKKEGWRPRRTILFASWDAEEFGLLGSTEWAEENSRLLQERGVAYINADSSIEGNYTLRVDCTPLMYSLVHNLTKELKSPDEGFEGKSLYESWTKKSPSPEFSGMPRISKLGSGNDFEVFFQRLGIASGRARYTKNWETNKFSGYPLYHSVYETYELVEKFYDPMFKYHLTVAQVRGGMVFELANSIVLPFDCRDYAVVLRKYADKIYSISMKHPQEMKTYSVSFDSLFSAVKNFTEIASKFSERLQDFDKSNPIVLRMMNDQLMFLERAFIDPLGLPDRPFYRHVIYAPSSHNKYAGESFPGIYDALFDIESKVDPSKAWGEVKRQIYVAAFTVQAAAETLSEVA

Turning to `O=C(O)CC[C@H](NC(=O)N[C@@H](CCCCNC(=O)Nc1ccc(I)cc1)C(=O)O)C(=O)O` [Comparative Example 1, reference compound], in data set [1], the IC50 is 30.7 ± 10.2 nM.

For `O=C(O)CC[C@H](NC(=O)N[C@@H](CCCCNC(=O)Nc1ccc([123I])cc1)C(=O)O)C(=O)O` [Comparative Example 1, reference compound], the “% Internalization ratio (Mean ± SD)” value was found to be 91.27 ± 4.03% in data set [2] (30 min), 86.91 ± 8.13% in data set [2] (60 min), 94.31 ± 2.94% in data set [2] (120 min) and 95.01 ± 2.58% in data set [2] (240 min). For the same compound, in data set [3], the “tumor binding (MicroPET/CT, FIG. 3)” value is recorded as “selectively bound to PSMA+PC-3 PIP tumors”. Besides, the “excretion (MicroPET/CT, FIG. 3)” value in data set [3] was “rapidly excreted through the kidneys and bladder”.

In data set [4] (setting [5]), `O=C(O)CC[C@H](NC(=O)N[C@@H](CCCCNC(=O)N(Cc1cn(CCOCC[18F])nn1)c1ccncc1)C(=O)O)C(=O)O` [Example 7-6] registered a PIP to blood of 14.05 ± 3.61, a PIP to liver of 5.64 ± 6.10, a PIP to muscle of 13.00 ± 4.97 and a PIP to spleen of 7.31 ± 3.34. Further, the PIP/flu in data set [4] (setting [5]) is on record as 16.00 ± 5.68. In data set [4] (1 h after tail vein injection), this compound displayed a PIP to blood of 30.30 ± 17.05, a PIP to liver of 9.93 ± 13.26, a PIP to muscle of 20.11 ± 14.99 and a PIP to spleen of 12.46 ± 16.18. In data set [4] (1 h after tail vein injection), the PIP/flu was determined as 23.08 ± 14.91. In data set [4] (2 h after tail vein injection), this compound yielded a PIP to blood of 36.90 ± 9.52, a PIP to liver of 13.71 ± 12.60, a PIP to muscle of 38.11 ± 14.83 and a PIP to spleen of 25.98 ± 8.66. Further, the PIP/flu in data set [4] (2 h after tail vein injection) was 33.32 ± 14.64. In addition, in data set [4] (4 h after tail vein injection), the PIP to blood is on record as 42.90 ± 18.49, the PIP to liver is 19.77 ± 11.81, the PIP to muscle is on record as 45.39 ± 22.54 and the PIP to spleen is 32.51 ± 10.12. In data set [4] (4 h after tail vein injection), this compound gave a PIP/flu of 35.69 ± 11.64. In addition, the “% Internalization ratio (Mean ± SD)” value in data set [2] (30 min) was determined as 93.30 ± 2.11%. Besides, in data set [2] (60 min), the “% Internalization ratio (Mean ± SD)” value amounted to 91.89 ± 5.76%. Besides, the “% Internalization ratio (Mean ± SD)” value in data set [2] (120 min) was 94.77 ± 2.92%. Besides, the “% Internalization ratio (Mean ± SD)” value in data set [2] (240 min) was found to be 96.32 ± 1.08%. In addition, in data set [1], the “binding capacity higher than [18F]DCFPyL (Comparative Example 1)” value is recorded as “about 6 times”, the “binding to the PSMA protein (in words)” value is given as “most strongly bound” and the IC50 was 5.08 nM. Also, in data set [3], the “tumor binding (MicroPET/CT, FIG. 3)” value is listed as “selectively bound to PSMA+PC-3 PIP tumors”; the “excretion (MicroPET/CT, FIG. 3)” value is “rapidly excreted through the kidneys and bladder”.

Consider `O=C(O)CC[C@H](NC(=O)N[C@@H](CCCCNC(=O)N(Cc1ccncc1)Cc1cn(CCOCC[18F])nn1)C(=O)O)C(=O)O` [Example 7-5], for which, in data set [1], the IC50 was 11.8 nM.

For the compound `O=C(O)CC[C@H](NC(=O)N[C@@H](CCCCNC(=O)NCc1cn(CCOCC[18F])nn1)C(=O)O)C(=O)O` [Example 7-4], the IC50 in data set [1] was found to be 57 ± 33 nM.

As to `O=C(O)CC[C@H](NC(=O)N[C@@H](CCCCNC(=O)NCc1cn(CCF)nn1)C(=O)O)C(=O)O` [Example 7-1], in data set [1], the IC50 turned out to be 635 ± 263 nM.
